Literature values as cited in patent publication US6562827B1, “Heterocyclically substituted amides used as calpain inhibitors” (Abbott Laboratories, priority 1998, dated 2003).

Assays:
[1] = known calpain inhibitors
calpain [2] = conditions: known calpain inhibitors
calpain [3] = conditions: result in words, from the literature
[4] = system: tyrosine kinase pp60src cleaved by calpain; conditions: activated platelets; Oda et al. J. Biol. Chem. 1993

Compound | crossing of cell membranes [1] | action in cells (calpain [2]) | calpain inhibition (calpain [3]) | cleavage of pp60src [4]
CC(=O)N[C@@H](CC(C)C)C(=O)N[C@@H](CC(C)C)C(=O)N[C@H](C=O)CCCNC(=N)N [leupeptin] | only cross the cell membranes with difficulty | only a poor action in cells | good calpain inhibitors | –
CC(C)C[C@H](NC(=O)[C@H]1O[C@@H]1C(=O)O)C(=O)NCCCCN=C(N)N [E 64] | only cross the cell membranes with difficulty | only a poor action in cells | good calpain inhibitors | –
Ph—CONH—CH(CH2Ph)—CO—COCOOCH3 | – | – | only a weak calpain inhibitor | –
CCCC[C@@H](C=O)NC(=O)[C@H](CC(C)C)NC(=O)OCc1ccccc1 [calpeptin] | – | – | – | can be prevented
